Data published in patent US20240246920A1, “TRIAZOLE DERIVATIVES WITH ANTIFUNGAL ACTIVITY” (King's College London, priority 2020, published 2024).
In brackets after ≈: the same amount, converted by molar mass. Like-named read-outs stand apart in the source and are kept apart here.

Experiments:
[1] = test system: C. auris (e.g. TDG1912, TDG2506 or 8984); test: microbe, parasite or virus in culture; format: cell-based, Candida auris; conditions: Candidozyma auris; efflux pump table; read-out: MIC Fluconazole, C. auris (e.g. TDG1912, TDG2506 or 8984)
Candida auris TDG2211 = test: microbe, parasite or virus in culture; format: cell-based; conditions: Candidozyma auris
Procedure, shortened: (§1)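 MIC = lowest concentration inhibiting growth ≥50% relative to drug-free control, read by OD530 nm after 24 h at 37° C. Medium: RPMI 1640/MOPS/2% glucose, pH 7.0. Inoculum 0.5-5×10^5/mL.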

Candida auris TDG2506 = test: microbe, parasite or virus in culture; format: cell-based; conditions: Candidozyma auris
Procedure, shortened: as §1

C. parapsilosis NCPF3209 = test: microbe, parasite or virus in culture; format: cell-based, Candida parapsilosis; conditions: Lodderomyces parapsilosis
Procedure, shortened: (§2)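 MIC taken as lowest concentration inhibiting growth ≥50% relative to drug-free control, from OD530 after 24 hours at 37° C. Fungi at 0.5-5×10^5/mL were exposed to serially diluted compound in RPMI 1640/MOPS/2% glucose medium adjusted to pH 7.0.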

C. krusei NCPF3876 = test: microbe, parasite or virus in culture; format: cell-based, Candida krusei; conditions: Pichia kudriavzevii
Procedure, shortened: as §2

C. albicans 3363 = test: Candida albicans panel MIC; format: cell-based; conditions: Table 6, Candida albicans panel
Procedure, shortened: (§3)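 MIC = lowest conc. with ≥50% inhibition vs drug-free fungus control, OD530 read. Serial dilution 128–0.25 μg/mL in RPMI/MOPS/2% glucose pH 7.0; 0.5-5×10^5 cells/mL; 37° C, 24 h.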

C. albicans 3990 = test: Candida albicans panel MIC; format: cell-based; conditions: Table 6, Candida albicans panel
Procedure, shortened: as §3

C. albicans 3645 = test: Candida albicans panel MIC; format: cell-based; conditions: Table 6, Candida albicans panel
Procedure, shortened: as §3

C. albicans 3881 = test: Candida albicans panel MIC; format: cell-based; conditions: Table 6, Candida albicans panel
Procedure, shortened: as §3

C. albicans 8112 = test: Candida albicans panel MIC; format: cell-based; conditions: Table 6, Candida albicans panel
Procedure, shortened: as §3

C. albicans 3880 = test: Candida albicans panel MIC; format: cell-based; conditions: Table 6, Candida albicans panel
Procedure, shortened: as §3

C. albicans 3882 = test: Candida albicans panel MIC; format: cell-based; conditions: Table 6, Candida albicans panel
Procedure, shortened: as §3

Candida auris TDG1102 = test: Candida panel MIC, serial dilution in 96-well plates; format: cell-based; conditions: Candidozyma auris, TDG1102; Table 4, extended panel; 24 hours, ≥50% inhibition; read-out: MIC Candida auris TDG1102
Procedure, shortened: (§4)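 Overnight starter cultures were diluted to OD600 0.01 and added to serially diluted compound (128 to 0.25 μg/mL) in MOPS-buffered RPMI with 2% glucose, pH 7.0, giving 0.5-5×10^5 cells/mL. After 24 h at 37 °C, OD530 was measured and the ≥50% inhibition endpoint taken as MIC.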

C. auris TDG1912 = test: as above; format: cell-based; conditions: Candidozyma auris, TDG1912; Table 4; 24 hours, ≥50% inhibition; read-out: MIC C. auris TDG1912
Procedure, shortened: as §4

Candida auris TDG2512 = test: as above; format: cell-based; conditions: Candidozyma auris, TDG2512; Table 4, extended panel; 24 hours, ≥50% inhibition; read-out: MIC Candida auris TDG2512
Procedure, shortened: as §4

C. tropicalis NCPF8760 = test: as above; format: cell-based
Procedure, shortened: as §4

C. albicans NCPF3281 = test: as above; format: cell-based, Candida albicans
Procedure, shortened: as §4

C. auris strain TDG1912 = test: Galleria mellonella infection model, larval survival; format: in vivo; conditions: G. mellonella infected with C. auris TDG1912; survival over 120 hours
Experimental: The effects of test compounds in-vivo was assessed using a Galleria mellonella infection model.
G. mellonella were injected in a proleg with 10 μL of C. auris strain TDG1912 (OD4) at a concentration of 1×10^6 cfu/10 μL using a Hamilton syringe and left for 30 minutes to recover from injection and to allow infection to begin. The G. mellonella were then injected with 10 μL of the compound of the invention at either 50 mg/kg (10% DMSO) or 20 mg/kg (4% DMSO) or PBS containing 10% DMSO as an infection-only control. 10 larvae were selected for each treatment, and the experiment was repeated 3 times for the test compound and fluconazole. Survival of larvae was monitored for a 5 day period and results are presented as % survival over 120 hours (see FIG. 1).

C. glabrata NCPF8018 = test: Candida panel MIC, serial dilution in 96-well plates; format: cell-based, Candida glabrata; conditions: Nakaseomyces glabratus
Procedure, shortened: as §2

`OC(Cn1cncn1)(Cn1cncn1)c1ccc(F)cc1F` [Fluconazole, fluconazole, reference compound] gave an MIC [1] of over 128 µg/mL, an MIC (Candida auris TDG2211; TDG2211, read-out: MIC C. auris 2211) of 16 to 128 µg/mL (≈ 52.2 to 418 µM) and an MIC (Candida auris TDG2211; TDG2211, Table 4, extended panel, 24 hours, ≥50% inhibition, read-out: MIC Candida auris TDG2211) of 64 µg/mL (≈ 209 µM). The MIC (Candida auris TDG2506; TDG2506, read-out: MIC C. auris 2506) was over 128 µg/mL, the MIC (Candida auris TDG2506; TDG2506, Table 4, extended panel, 24 hours, ≥50% inhibition, read-out: MIC Candida auris TDG2506) was over 128 µg/mL and the MIC (C. parapsilosis NCPF3209; NCPF3209, read-out: MIC C. Parapsilosis NCPF3209) was at most 0.25 µg/mL. The MIC (C. parapsilosis NCPF3209; NCPF3209, read-out: MIC Fluconazole, C. parapsilosis 3209) was 0.5 µg/mL (≈ 1.63 µM), the MIC (C. parapsilosis NCPF3209; NCPF3209, Table 4, common panel, 24 hours, ≥50% inhibition, read-out: MIC C. parapsilosis NCPF3209) was at most 0.25 µg/mL and the MIC (C. krusei NCPF3876; NCPF3876, read-out: MIC C. Krusei NCPF3876) was 0.5 to 8 µg/mL (≈ 1.63 to 26.1 µM). It also gave an MIC (C. krusei NCPF3876; NCPF3876, read-out: MIC Fluconazole, C. krusei 3876) of 32 µg/mL (≈ 104 µM), an MIC (C. krusei NCPF3876; NCPF3876, Table 4, common panel, 24 hours, ≥50% inhibition, read-out: MIC C. krusei NCPF3876) of 0.5 to 8 µg/mL (≈ 1.63 to 26.1 µM) and an MIC (C. albicans 3363) of 8 µg/mL (≈ 26.1 µM). For the same compound, the MIC (C. albicans 3990) was 8 µg/mL (≈ 26.1 µM), the MIC (C. albicans 3645) was at most 0.125 µg/mL and the MIC (C. albicans 3881) was 8 µg/mL (≈ 26.1 µM). For the same compound, the MIC (C. albicans 8112) was 0.125 µg/mL (≈ 0.408 µM), the MIC (C. albicans 3880) was 16 µg/mL (≈ 52.2 µM) and the MIC (C. albicans 3882) was 16 µg/mL (≈ 52.2 µM). The MIC (Candida auris TDG1102) was 64 µg/mL (≈ 209 µM), the MIC (C. auris TDG1912) was over 128 µg/mL and the MIC (Candida auris TDG2512) was 16 µg/mL (≈ 52.2 µM). It also gave an MIC (C. tropicalis NCPF8760; NCPF8760, Table 4, common panel, 24 hours, ≥50% inhibition, read-out: MIC C. tropicalis NCPF8760) of 4 to 8 µg/mL (≈ 13.1 to 26.1 µM), an MIC (C. tropicalis NCPF8760; NCPF8760, read-out: MIC C. Tropicalis NCPF8760) of 4 to 8 µg/mL (≈ 13.1 to 26.1 µM) and an MIC (C. albicans NCPF3281; Candida albicans, NCPF3281, read-out: MIC Fluconazole, C. albicans 3281) of over 128 µg/mL. The MIC (C. albicans NCPF3281; Candida albicans, NCPF3281, Table 4, common panel, 24 hours, ≥50% inhibition, read-out: MIC C. albicans NCPF3281) was at most 0.125 µg/mL, the MIC (C. albicans NCPF3281; NCPF3281, Table 6, Candida albicans panel, read-out: MIC C. albicans NCPF3281) was at most 0.125 µg/mL and the “Protection against multi-drug resistant C. auris (larval survival)” value (C. auris strain TDG1912) was “no significant effect”. The MIC (C. glabrata NCPF8018; NCPF8018, read-out: MIC C. Glabrata NCPF8018) was 0.5 to 4 µg/mL (≈ 1.63 to 13.1 µM), the MIC (C. glabrata NCPF8018; NCPF8018, read-out: MIC Fluconazole, C. glabrata 8018) was over 128 µg/mL and the MIC (C. glabrata NCPF8018; NCPF8018, Table 4, common panel, 24 hours, ≥50% inhibition, read-out: MIC C. glabrata NCPF8018) was 0.5 to 4 µg/mL (≈ 1.63 to 13.1 µM).
